{
  "source": "patent US4335112A",
  "about": "“Method of treating mites in poultry” (priority 1981, dated 1982)",
  "key": {"[1]": {"system": "mites", "experiment": "Control and elimination of mites in poultry flocks by bacitracin feed supplement (general finding)", "assay_type": "in vivo", "excerpt": "This unique use is for the control and elimination of mites in poultry flocks."}, "[2]": {"system": "mites", "experiment": "Treatment of mite-infested chicken flock with zinc bacitracin in the feed", "assay_type": "in vivo", "excerpt": "The following example is offered to illustrate the manner in which the zinc bacitracin is used and the efficiency which it has realized. A flock of 10,000 Babcock chickens of an approximate age of 9-10 months, weighing approximately 3 pounds became heavily infested with mites. […] Ten months later the same flock again became mite infested."}},
  "note": "Where a SMILES comes first, the peptide text is derived from it. Bridges are numbered along the chain shown (N, C = ends). [ ]: non-standard residue; d: D form. The star is where a group is joined. Ileψ(thiazoline)Cys = CC[C@H](C)[C@H](N)C1=N[C@H](C(=O)*)CS1; dOrn = NCCC[C@@H](N)C(=O)O",
  "data": [
    {"compound": "CC[C@H](C)[C@H](N)C1=N[C@H](C(=O)N[C@@H](CC(C)C)C(=O)N[C@H](CCC(=O)O)C(=O)N[C@H](C(=O)N[C@H]2CCCCNC(=O)[C@H](CC(N)=O)NC(=O)[C@@H](CC(=O)O)NC(=O)[C@H](Cc3cnc[nH]3)NC(=O)[C@@H](Cc3ccccc3)NC(=O)[C@H]([C@@H](C)CC)NC(=O)[C@@H](CCCN)NC2=O)[C@@H](C)CC)CS1", "note": "[bacitracin] ({Ileψ(thiazoline)Cys}-L[dE]IK[dOrn]I[dF]H[dD]N; lactam 4-C)", "values": [
      {"measurement": "toxicity to mites", "setting": "[1]; applicant's discovery, no details", "result": "toxic to mites"},
      {"measurement": "elimination of mites from infested poultry flock", "setting": "[1]; between 100 and 200 grams of bacitracin per ton of poultry grain for several days", "result": "substantially eliminate mites"}
    ]},
    {"compound": "zinc bacitracin", "values": [
      {"measurement": "disappearance of mites from infested flock", "setting": "[2]; flock of 10,000 Babcock chickens, 9-10 months old, heavily infested, 100 grams per ton in normal feed for seven days", "result": "substantially all of the mites had disappeared"},
      {"measurement": "effect of same treatment on re-infestation", "setting": "[2]; same flock again mite infested ten months later, same treatment (100 grams per ton feed, seven days)", "result": "same effective results"}
    ]}
  ]
}
